Measured values as given in patent US9062013B2, “Positive allosteric modulators of the α7 nicotinic acetylcholine receptor and uses thereof” (Bionomics Limited, priority 2011, dated 2015).

System: scopolamine treated mice
Experiment: T-maze Continuous Alternation Task (T-CAT), scopolamine-induced cognitive impairment
Type: in vivo
Conditions: test compounds administered 60 min prior, scopolamine 20 min prior to the T-maze session
Source text: Scopolamine is a muscarinic receptor antagonist which is used as a standard/reference drug for inducing cognitive deficits in healthy humans and animals.
The T-maze Continuous Alternation Task (T-CAT) measures spontaneous alternation, which is the innate tendency of mice to alternate free choices in a T-maze over a series of successive runs. This sequential procedure relies on working memory and is sensitive to various pharmacological manipulations affecting memory processes.
The T-maze apparatus is made of gray Plexiglas with a main stem (55 cm long×10 cm wide×25 cm high) and two arms (30 cm long×10 cm wide×25 cm high) positioned at 90 degree angle relative to the main stem. A start box (15 cm long×10 cm wide) is separated from the main stem by a sliding door. Sliding doors are also provided to close specific arms during the forced-choice alternation task.
The experimental protocol consists of one single session, which starts with 1 “forced-choice” trial, followed by 14 “free-choice” trials. In the first “forced-choice” trial, the animal is confined for 5 s in the start arm and then it is released while either the left or right goal arm is blocked by a sliding door. The animal will negotiate the maze, eventually enter the open goal arm, and return to the start position. Immediately after the return to the start position, the left or right goal door is opened and the animal is allowed to choose freely between the left and right goal arm (“free choice” trials). The animal is considered to have entered an arm when it places its four paws in the arm. A session is terminated and the animal is removed from the maze as soon as 14 free-choice trials have been performed or 10 min have elapsed, whichever event occurs first. The percentage of alternation over the 14 free-choice trials is determined for each mouse and is used as an index of working memory performance. This percentage is defined as entry in a different arm of the T-maze over successive visits (i.e., left-right-left-right, etc). Scopolamine administered 20 min prior the initiation of the 1-maze session is used to induce disruption in the spontaneous alternation of mice. Test compounds are administered 60 min prior the start of the T-maze session in order to evaluate their ability to reverse the scopolamine effect.
The apparatus is cleaned between each animal using alcohol (70°). Urine and feces are removed from the maze. During the trials, animal handling and the visibility of the operator are minimized as much as possible.

Compound	improvement relative to the scopolamine treated mice (spontaneous alternation)
CC1(C)[C@H](C(=O)Nc2cc(C(F)(F)F)n[nH]2)[C@H]1c1ccc(S(N)(=O)=O)cc1 (relative stereo) [Example 2b, 2,2-Dimethyl-trans-3-(4-sulfamoylphenyl)-N-(3-(trifluoromethyl)-1H-pyrazol-5-yl)cyclopropanecarboxamide]	significant improvement
COc1ccc(Cl)cc1NC(=O)[C@@H]1[C@@H](c2ccc(S(N)(=O)=O)cc2)C1(C)C (relative stereo) [Example 4b, trans-N-(5-Chloro-2-methoxyphenyl)-2,2-dimethyl-3-(4-sulfamoylphenyl)cyclopropanecarboxamide]	significant improvement
COc1ccc(Cl)cc1NC(=O)[C@@H]1[C@@H](c2ccc(Cl)cc2)C1(C)C (relative stereo) [Example 5a, trans-N-(5-Chloro-2-methoxyphenyl)-3-(4-chlorophenyl)-2,2-dimethylcyclopropanecarboxamide]	significant improvement
COc1ccc(Cl)cc1NC(=O)[C@@H]1[C@@H](c2ccc(S(N)(=O)=O)cc2)C12CCCC2 (relative stereo) [Example 6b, trans-N-(5-Chloro-2-methoxyphenyl)-2-(4-sulfamoylphenyl)spiro[2.4]heptane-1-carboxamide]	significant improvement
NS(=O)(=O)c1ccc([C@@H]2[C@@H](C(=O)Nc3ccc(C(F)(F)F)cc3)C23CCCC3)cc1 (relative stereo) [Example 9b, trans-2-(4-sulfamoylphenyl)-N-(4-(trifluoromethyl)phenyl)spiro[2.4]heptane-1-carboxamide]	significant improvement
CC1(C)[C@H](C(=O)Nc2ccncc2)[C@H]1c1ccc(S(N)(=O)=O)cc1 (relative stereo) [Example 10b, 2,2-Dimethyl-trans-N-(pyridin-4-yl)-3-(4-sulfamoylphenyl)cyclopropanecarboxamide]	significant improvement

System: not given
Experiment: not given
Conditions: not given

Compound	melting point [°C]
Cc1cnc(NC(=O)[C@@H]2[C@@H](c3ccccc3)C2(C)C)s1 (relative stereo) [Example 1a, 2,2-Dimethyl-trans-N-(5-methylthiazol-2-yl)-3-phenylcyclopropanecarboxamide]	132 to 135
CC1(C)[C@H](C(=O)Nc2cc(C(F)(F)F)n[nH]2)[C@H]1c1ccccc1 (relative stereo) [Example 2a, 2,2-Dimethyl-trans-3-phenyl-N-(3-(trifluoromethyl)-1H-pyrazol-5-yl)cyclopropanecarboxamide]	68 to 71
COc1cc(OC)c(NC(=O)[C@@H]2[C@@H](c3ccccc3)C2(C)C)cc1Cl (relative stereo) [Example 3a, trans-N-(5-Chloro-2,4-dimethoxyphenyl)-2,2-dimethyl-3-phenylcyclopropanecarboxamide]	160 to 162
COc1ccc(Cl)cc1NC(=O)[C@@H]1[C@@H](c2ccccc2)C1(C)C (relative stereo) [Example 4a, trans-N-(5-Chloro-2-methoxyphenyl)-2,2-dimethyl-3-phenylcyclopropanecarboxamide]	155 to 157
COc1ccc(Cl)cc1NC(=O)[C@@H]1[C@@H](c2ccc(Cl)cc2)C1(C)C (relative stereo) [Example 5a, trans-N-(5-Chloro-2-methoxyphenyl)-3-(4-chlorophenyl)-2,2-dimethylcyclopropanecarboxamide]	162 to 164
COc1ccc(NC(=O)[C@@H]2[C@@H](c3ccccc3)C23CCCC3)c(OC)n1 (relative stereo) [Example 8a, trans-N-(2,6-dimethoxypyridin-3-yl)-2-phenylspiro[2.4]heptane-1-carboxamide]	131 to 133
O=C(Nc1ccc(C(F)(F)F)cc1)[C@@H]1[C@@H](c2ccccc2)C12CCCC2 (relative stereo) [Example 9a, trans-2-phenyl-N-(4-(trifluoromethyl)phenyl)spiro[2.4]heptane-1-carboxamide]	171 to 173
COc1ccc(Cl)cc1NC(=O)[C@@H]1[C@@H](c2ccc(Br)cc2)C1(C)C (relative stereo) [Example 12c, trans-N-(5-Chloro-2-methoxyphenyl)-3-(4-bromophenyl)-2,2-dimethylcyclopropanecarboxamide]	170 to 172
COc1ncccc1NC(=O)[C@@H]1[C@@H](c2ccccc2)C1(C)C (relative stereo) [Example 13a, trans-N-(2-methoxypyridin-3-yl)-2,2-dimethyl-3-phenylcyclopropanecarboxamide]	152 to 154
O=C(Nc1ccc(C(F)(F)F)cc1Cl)[C@@H]1[C@@H](c2ccccc2)C12CCCC2 (relative stereo) [Example 15a, trans-2-phenyl-N-[2-chloro-4-(trifluoromethyl)phenyl]spiro[2.4]heptane-1-carboxamide]	131 to 133
Cc1cccc([C@@H]2[C@@H](C(=O)Nc3ccc(F)c(F)c3)C2(C)C)c1 (relative stereo) [Example 16d, trans-N-(3,4-Difluoro-phenyl)-2,2-dimethyl-3-m-tolyl-cyclopropanecarboxamide]	110 to 113
COc1ccc(Cl)cc1NC(=O)[C@@H]1[C@@H](c2cccc(C)c2)C1(C)C (relative stereo) [Example 17a, trans-N-(5-Chloro-2-methoxyphenyl)-2,2-dimethyl-3-m-tolyl-cyclopropanecarboxamide]	148 to 150
COc1ccc(Cl)cc1NC(=O)[C@@H]1[C@@H](c2ccc3c(c2)OC(F)(F)O3)C1(C)C (relative stereo) [Example 18d, trans-N-(5-Chloro-2-methoxyphenyl)-3-(2,2-difluoro-benzo[1,3]dioxol-5-yl)-2,2-dimethyl-cyclopropane carboxamide]	120 to 122
COc1ccc(Cl)cc1NC(=O)[C@@H]1[C@@H](c2ccccc2)C12CCCC2 [Example 6a, trans-N-(5-Chloro-2-methoxyphenyl)-2-phenylspirol[2.4]heptane-1-carboxamide]	133 to 135
